# Measurements as given in patent publication US20110039896A1, “NOVEL 2-PYRROLIDINYL-3-AMIDO-6-AMINO-PYRIDINE DERIVATIVES USEFUL AS POTASSIUM CHANNEL ACTIVATORS” (NeuroSearch A/S, priority 2007, published 2011).
# Target: T1, human Kv72+3 channels (Homo sapiens, UniProt O43525+O43526)
# T1 construct: expressed in transfected cells
# Experiment: Patch-clamp on HEK293 cells stably expressing human Kv7.2+3 channels
# Assay type: cell-based
# Conditions: conc. 0.03 μM, −30 mV, 20 ms, current relative to baseline current defined as 100%, read-out: IK (%)
# Description: The effect obtained by these channel activators is described as a percentage increase in baseline current at a given concentration. The baseline current is defined as 100%, and an increase in current is expressed relative to this, i.e. an increase from 1 nA to 1.2 nA is reported as 120%.
row,activity at 0.03 µM [%],Structure (SMILES)
1,306,"O=C(Cc1ccc(C(F)(F)F)c(F)c1)Nc1ccc(NCc2ccc(F)cc2)nc1N1CCCC1 [Compound 1, N-[6-(4-Fluoro-benzylamino)-2-pyrrolidin-1-yl-pyridin-3-yl]-2-(3-fluoro-4-trifluoromethyl-phenyl)-acetamide]"
2,192,"O=C(Nc1ccc(NCc2ccc(F)cc2)nc1N1CCCC1)[C@@H]1C[C@H]1c1ccccc1 [Compound 7, (R)-2-Phenyl-cyclopropanecarboxylic acid [6-(4-fluoro-benzylamino)-2-pyrrolidin-1-yl-pyridin-3-yl]-amide]"
3,239,"CC(C)(C)CC(=O)Nc1ccc(NCc2ccc(F)cc2)nc1N1CCCC1 [Compound 9, N-[6-(4-Fluoro-benzylamino)-2-pyrrolidin-1-yl-pyridin-3-yl]-3,3-dimethyl-butyramide]"
4,155,"CC(C)(C)CC(=O)Nc1ccc(NCc2ccc3c(c2)OCO3)nc1N1CCCC1 [Compound 14, N-{6-[(Benzo[1,3]dioxol-5-ylmethyl)-amino]-2-pyrrolidin-1-yl-pyridin-3-yl}-3,3-dimethyl-butyramide]"
5,490,"N#Cc1ccc(CNc2ccc(NC(=O)Cc3cc(F)cc(F)c3)c(N3CCCC3)n2)cc1 [Compound 17, N-[6-(4-Cyano-benzylamino)-2-pyrrolidin-1-yl-pyridin-3-yl]-2-(3,5-difluoro-phenyl)-acetamide]"
6,842,COc1ccc(CNc2ccc(NC(=O)Cc3cc(F)cc(F)c3)c(N3CCCC3)n2)cc1 [Compound 19]
